Source: the supplement of paper PMC10307832

Legend:
Experiment in all cases: relative viability (nuclei count vs DMSO), 5 days (fraction); higher = more cells survive
Axitinib + Trametinib = compound: CNC(=O)c1ccccc1Sc1ccc2c(/C=C/c3ccccn3)n[nH]c2c1 [Axitinib] + CC(=O)Nc1cccc(-n2c(=O)n(C3CC3)c(=O)c3c(Nc4ccc(I)cc4F)n(C)c(=O)c(C)c32)c1 [Trametinib] (partner 0.02 µM)
Procedure, shortened: (§1)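 Dosing by pin tool came one day after lung cancer cell lines were seeded in 1536-well plates, using either one drug or a fixed anchor-drug dose plus five library-drug doses (not always all listed) in √10 steps. After 5 days, nuclei were counted on 4× images. Relative viability is treated-well nuclei count divided by vehicle-well nuclei count, and values are medians of duplicate plates.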

[1] = compound: CC1=CC=C(C=C1)C(=O)CN2C3=C(CCCC3)SC2=N [Pifithrin_alpha] + N=C(N)NC(=N)NCCc1ccccc1 [Phenformin] (partner 250 µM)
Procedure, shortened: as §1

Axitinib + Luminespib = compound: CNC(=O)c1ccccc1Sc1ccc2c(/C=C/c3ccccn3)n[nH]c2c1 [Axitinib] + CCNC(=O)c1noc(-c2cc(C(C)C)c(O)cc2O)c1-c1ccc(CN2CCOCC2)cc1 [Luminespib] (partner 0.01 µM)
Procedure, shortened: as §1

[2] = compound: CC1=CC=C(C=C1)C(=O)CN2C3=C(CCCC3)SC2=N [Pifithrin_alpha] + CC1(C)CCC(c2ccc(Cl)cc2)=C(CN2CCN(c3ccc(C(=O)NS(=O)(=O)c4ccc(N[C@H](CCN5CCOCC5)CSc5ccccc5)c(S(=O)(=O)C(F)(F)F)c4)cc3)CC2)C1 [Navitoclax] (partner 0.5 µM)
Procedure, shortened: as §1

| Cell Line | relative viability (Axitinib + Trametinib; first compound 0.005 µM) | relative viability (Axitinib + Trametinib; first compound 0.01581 µM) | relative viability (Axitinib + Trametinib; first compound 0.05 µM) | relative viability (Axitinib + Trametinib; first compound 0.1581 µM) | relative viability (Axitinib + Trametinib; first compound 0.5 µM) | relative viability ([1]; first compound 1 µM) | relative viability ([1]; first compound 3.162 µM) | relative viability ([1]; first compound 10 µM) | relative viability ([1]; first compound 31.62 µM) | relative viability ([1]; first compound 100 µM) | relative viability (Axitinib + Luminespib; first compound 0.005 µM) | relative viability (Axitinib + Luminespib; first compound 0.01581 µM) | relative viability (Axitinib + Luminespib; first compound 0.05 µM) | relative viability (Axitinib + Luminespib; first compound 0.1581 µM) | relative viability (Axitinib + Luminespib; first compound 0.5 µM) | relative viability ([2]; first compound 1 µM) | relative viability ([2]; first compound 3.162 µM) | relative viability ([2]; first compound 10 µM) | relative viability ([2]; first compound 31.62 µM) | relative viability ([2]; first compound 100 µM) |
| --- | --- | --- | --- | --- | --- | --- | --- | --- | --- | --- | --- | --- | --- | --- | --- | --- | --- | --- | --- | --- |
| NCI-H2342 | 0.789 | 0.751 | 0.703 | 0.881 | 0.794 | 0.484 | 0.622 | 0.543 | 0.585 | 0.553 | 0.896 | 0.763 | 0.59 | 0.756 | 0.726 | – | – | – | – | – |
| NCI-H2085 | 0.561 | 0.496 | 0.56 | 0.546 | 0.548 | – | 0.597 | 0.686 | 0.65 | 0.619 | 0.451 | 0.389 | 0.404 | 0.502 | 0.415 | 1.06 | 1.22 | 1.08 | 0.876 | 1.04 |
| BEN | 1.33 | 1.04 | 0.885 | 0.992 | 1.01 | 0.296 | 0.595 | 0.276 | 0.246 | 0.289 | 0.486 | 0.309 | 0.509 | 0.372 | 0.226 | 0.0519 | 0.0641 | 0.0597 | 0.0612 | 0.0656 |
| LCLC-103H | 0.737 | 0.651 | 0.685 | 0.705 | 0.693 | 0.336 | 0.313 | 0.373 | 0.355 | 0.375 | 0.988 | 0.917 | 0.978 | 0.924 | 0.994 | – | – | – | – | – |
| NCI-H520 | 0.704 | 0.542 | 0.733 | 0.541 | 0.686 | 0.579 | 0.554 | 0.566 | – | 0.581 | 0.228 | 0.239 | 0.23 | 0.222 | 0.284 | 1.11 | 1.32 | 1.16 | 0.94 | 1.12 |
| NCI-H1975 | 0.44 | 0.361 | 0.325 | 0.348 | 0.328 | 0.394 | 0.38 | 0.373 | 0.337 | 0.364 | 0.244 | 0.337 | 0.192 | 0.198 | 0.257 | 0.918 | 0.848 | 0.621 | 0.616 | 0.686 |
| NCI-H1355 | 0.409 | 0.423 | 0.397 | 0.417 | 0.493 | 0.456 | 0.401 | 0.378 | 0.351 | 0.38 | 0.822 | 0.73 | 0.748 | 0.747 | 0.659 | 0.812 | 0.675 | 0.692 | 0.556 | 0.563 |
| IA-LM | – | – | – | – | – | – | – | – | – | – | – | – | – | – | – | 0.747 | 0.339 | 0.259 | 0.275 | 0.262 |
